Measured values: US20130164249A1, “COMPOSITIONS AND METHODS FOR INHIBITING VIRAL AND BACTERIAL ACTIVITY” (priority 2007, published 2013)

Key:
[1] = Solubility of ligand in buffer for SPR; format: physicochemical; details: pH 5.5
Method: (§1) Two commercially available functionalized phenylboronic acids (Frontier Scientific, Logan Utah) were screened to compare the effect of electron withdrawing substituents (2,5-difluorophenylboronic acid, 1, FIG. 3a), versus a ortho-hydroxymethyl substituent (2-hydroxymethylphenylboronic acid, 2, FIG. 3a) prepared at 50 mM concentrations in 25 mM buffers at the appropriate pH (pH 5.5 acetate buffer, pH 7.5 phosphate buffer, and pH 9.5 carbonate buffer). HIV-1 CN54 gp120 with a molecular weight of 130 kDa was obtained from the NIH AIDS Research and Reference Reagent Program (Division of AIDS, NIH). CN54 gp120 was attached to a CM4 sensor chip using standard amine coupling chemistry with a density of 10,000 RU. Briefly, using HBS-P as the running buffer, the carboxymethyl dextran surface of a surface Plasmon resonance (SPR) chip (CM4 chip, Biacore) was activated with an injection of a 1:1 ratio of 0.4M 1-ethyl-3-(3-dimethylaminopropyl)carbodiimide hydrochloride (EDC)/0.1M N-hydroxysuccinimide (NHS). CN54 gp120 in 10 mM sodium acetate (pH 5.5) was then coupled to the surface. The remaining activated groups were then blocked by an injection of 1M ethanolamine (pH 8.5).

HIV-1 CN54 gp120 = experiment: Surface plasmon resonance screening of phenylboronic acid ligands with HIV gp120; format: binding; details: SPR, 25° C., 1:1 interaction model, pH 5.5 / 7.5 / 9.5 buffers
Method: Two commercially available functionalized phenylboronic acids (Frontier Scientific, Logan Utah) were screened to compare the effect of electron withdrawing substituents (2,5-difluorophenylboronic acid, 1, FIG. 3a), versus a ortho-hydroxymethyl substituent (2-hydroxymethylphenylboronic acid, 2, FIG. 3a) prepared at 50 mM concentrations in 25 mM buffers at the appropriate pH (pH 5.5 acetate buffer, pH 7.5 phosphate buffer, and pH 9.5 carbonate buffer). HIV-1 CN54 gp120 with a molecular weight of 130 kDa was obtained from the NIH AIDS Research and Reference Reagent Program (Division of AIDS, NIH). CN54 gp120 was attached to a CM4 sensor chip using standard amine coupling chemistry with a density of 10,000 RU. […] Affinity for the gp120 functionalized surface was determined by comparing raw data to three reference cells: two of the unactivated CM4 surfaces, and an activated CM4 surface capped completely by ethanolamine. […] The association and dissociation phases were monitored for 1-3 min and 3-10 min respectively. Data was fitted to a 1:1 interaction model and the apparent affinity, KD, was determined using Scrubber II software. […]
Binding affinities in the presence of the seminal component fructose were also analyzed. […]

[2] = SPR reference surface (nonfunctionalized dextran); format: binding; details: pH 7.5, raw SPR data
Method: as §1

binding to nonfunctionalized dextran surface [2] | SMILES | solubility [1] | apparent affinity, KD, to gp120 functionalized surface (HIV-1 CN54 gp120)
 | OCc1ccccc1B(O)O [compound 2, 2-hydroxymethylphenylboronic acid] | not soluble | slightly higher affinity compared to the more acidic 1
no binding | OB(O)c1cc(F)ccc1F [compound 1, 2,5-difluorophenylboronic acid] |  | 
